Results on 17 molecules are retold here after patent publication US12448388B2, “PRMT5 inhibitors and uses thereof” (Gilead Sciences, Inc., priority 2023, dated 2025).

Where two headings read alike, the source gives them in different places. Bounds are passed on as bounds.

Test [1] has as its system HCT116 MTAP-deleted cell lines. Briefly: Cell viability assay (CellTiter-Glo, 7 days), HCT116 MTAP-deleted. The class given is cell-based. As to conditions: Homo sapiens, HCT-116, HCT116 MTAP-deleted, class symbols, read-out: CC50. Put shortly:
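CC50 values come from 7-day CellTiter-Glo viability measurements on cells exposed to a dose range of PRMT5 inhibitors dispensed from DMSO stocks.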
A general note: In ATP-based viability assays light output follows the ATP content of the culture.

Test [2] concerns Symmetric Di-methyl Arginine (SDMA) signal (PRMT5 inhibition) in HCT116 MTAP-deleted cells. Briefly: Symmetric di-methyl arginine image-based high content screen assay (SDMA assay), HCT116 MTAP-deleted. The class given is cell-based. To be noted: for EC50: Homo sapiens, HCT-116, HCT116 MTAP-deleted, class symbols. Here is the method: Symmetric di-methyl arginine image-based high content screen assay (SDMA assay) was performed in HCT116 WT and HCT116 MTAP-deleted cell lines to measure Symmetric Di-methyl Arginine (SDMA) signal reduction after selective PRMT5 inhibition in the MTAP-deleted cells. Control compounds were analyzed in parallel each time for quality control.
Briefly, the same compound plates were generated as mentioned in the previous section of Cell viability assay on Day −1. On Day 0, 800 HCT WT or HCT116 MTAP-deleted cell were seeded in compound-containing 384 well plates (50 μl per well) in RPMI 1640 media supplemented with 10% heat inactivated fetal bovine serum, Glutamax and penicillin streptomycin using EL460 liquid dispenser 5 μl cassette (BioTek, part no. 7170011). After equilibrating the plate at room temperature, the cells were incubated for 3 days inside the sealed incubator set at 37° C. with 90% humidity and 5% C02.
On Day 3, the cells were fixed by adding 45 μl of 8% neutralized formalin solution to each well using EL460 liquid dispenser 5 μl cassette and the cells were incubated for 30 minutes at room temperature. The formalin solution was washed off with […] phosphate buffered saline (dPBS), the 0.1% Triton X-100 solution in dPBS was used to permeabilize the cells for 15 minutes at room temperature. The triton solution was aspirated, 50 μl of Odyssey Blocking buffer +0.05% Tween20 was added and the plate was incubated at room temperature for 30 minutes.
The blocking solution was removed, a 20 μl of SDMA antibody (Cell Signaling Technology, Cat no. 13222) diluted 1:500 in Odyssey Blocking buffer +0.05% Tween20 was added and the plate was incubated at 4° C. overnight. Next day, the primary SDME antibody solution was washed from each well three times with 0.05% Tween20 in dPBS (PBST).
A 30 μl of the secondary antibody, a Goat anti-Rabbit Alexa Fluor Plus 488 (Invitrogen, Cat no. PIA32731) was diluted 1:500 in Odyssey Blocking buffer +0.05% Tween20 and the plate was incubated for 1.5 hours in dark at room temperature. The secondary antibody solution was removed, 30 μl of 5 mg/ml DAPI solution diluted 1:2000 in dPBS was added and the plate was incubated for 30 minutes in dark at room temperature. The DAPI solution was aspirated and the wells were washed six times with dPBS.
The SDMA signal and DAPI signal per cell were counted using a Cellomics CX7 LZR instrument reading under 488 and 405 nm laser, respectively. The SDMA signal was quantified by mean average intensity per cell from Alexa Fluor Plus 488 after the cell was defined with DAPI. The EC50 values for each compound after 3 days of treatment were calculated using 4 parameter non-linear logistical curve fit.
For the SDMA assay i.e. EC50 shown in Table 3A: A: EC50≤1 nM, B: 1 nM<EC50≤5 nM, C: EC50>5 nM.

[3] abbreviates: HCT116 WT versus HCT116 MTAP-deleted.
The mark [4] stands for this setting: HCT116 WT vs HCT116 MTAP-deleted.

`CN(C(=O)C1CC1)N(Cc1ccc(C(F)(F)F)cc1F)C(=O)c1cc2c(cc1F)nc(N)c1cncn12` [Fb-3, 4-amino-N′-(cyclopropanecarbonyl)-7-fluoro-N-(2-fluoro-4-(trifluoromethyl)benzyl)-N′-methylimidazo[1,5-a]quinoxaline-8-carbohydrazide]: in test [1] (cell viability), the CC50 is less than 100 nM. In test [2] (setting [3]), this molecule displayed an EC50 selectivity of 32. Further, in test [2], the half-maximal effective concentration (EC50) is not above 1 nM.

For the molecule `CC(=O)N(C)N(Cc1ccc(C(F)(F)F)cc1F)C(=O)c1ccc2nc(N)c3c(C)nc(C)n3c2c1` [Fa-7, N′-acetyl-4-amino-N-(2-fluoro-4-(trifluoromethyl)benzyl)-N′,1,3-trimethylimidazo[1,5-a]quinoxaline-8-carbohydrazide], in test [1] (cell viability), the CC50 fell in the range of 100 to 1000 nM. Moreover, the EC50 selectivity in test [2] (setting [3]) is 159. Moreover, in test [2], the EC50 is more than 5 nM.

For `C[C@H]1C[C@@H]2Oc3cc(OC(F)(F)F)ccc3[C@@H]2N(C(=O)c2cc3c(cn2)nc(N)c2cncn23)C1` [Fg-54, (4-aminoimidazo[1,5-a]pyrido[3,4-e]pyrazin-8-yl)((3S,4aS,9bS)-3-methyl-7-(trifluoromethoxy)-3,4,4a,9b-tetrahydrobenzofuro[3,2-b]pyridin-1(2H)-yl)methanone], the CC50 in test [1] (cell viability assay) is less than 100 nM. The EC50 selectivity in test [2] (setting [4]) came out at 69. In test [2], this molecule yielded an EC50 not above 1 nM.

For the molecule `Nc1nc2ccc(C(=O)N(Cc3ccc(C(F)(F)F)cc3F)C3COC3)cc2n2cncc12` [Ff-410, 4-amino-N-[[2-fluoro-4-(trifluoromethyl)phenyl]methyl]-N-(oxetan-3-yl)imidazo[1,5-a]quinoxaline-8-carboxamide], in test [1] (cell viability assay), the half-maximal cytotoxic concentration (CC50) was in the range of 100 to 1000 nM. The EC50 selectivity in test [2] (setting [4]) was 453. This molecule also yielded an EC50 in test [2] of more than 5 nM.

Turning to `Cc1ncn2c1c(N)nc1cnc(C(=O)N3C[C@H](C)C[C@@H]4Oc5cc(C(F)(F)F)ccc5[C@@H]43)cc12` [Ff-624, (4-amino-3-methylimidazo[1,5-a]pyrido[3,4-e]pyrazin-8-yl)((3R,4aS,9bS)-3-methyl-7-(trifluoromethyl)-3,4,4a,9b-tetrahydrobenzofuro[3,2-b]pyridin-1(2H)-yl)methanone], the CC50 in test [1] (cell viability assay) was 100 to 1000 nM. The same molecule yielded an EC50 selectivity in test [2] (setting [4]) of 27. This molecule also displayed an EC50 in test [2] of more than 5 nM.

For `Nc1nc2cnc(C(=O)N3C[C@@H](F)C[C@@H]4Oc5cc(OC(F)(F)F)ccc5[C@@H]43)cc2n2cncc12` [Fg-44, (4-aminoimidazo[1,5-a]pyrido[3,4-e]pyrazin-8-yl)((3S,4aS,9bS)-3-fluoro-7-(trifluoromethoxy)-3,4,4a,9b-tetrahydrobenzofuro[3,2-b]pyridin-1(2H)-yl)methanone], the CC50 in test [1] (cell viability assay) was less than 100 nM. Also, the EC50 selectivity in test [2] (setting [4]) is recorded as 119. Also, the EC50 in test [2] was not above 1 nM.

For `Cn1cc(N(Cc2ccc(C(F)(F)F)cc2F)C(=O)c2ccc3nc(N)c4cncn4c3c2)cn1` [Ff-278, 4-amino-N-(2-fluoro-4-(trifluoromethyl)benzyl)-N-(1-methyl-1H-pyrazol-4-yl)imidazo[1,5-a]quinoxaline-8-carboxamide], in test [1] (cell viability), the CC50 is less than 100 nM. Besides, in test [2] (setting [3]), the EC50 selectivity amounted to 47. In test [2], this molecule displayed an EC50 of 1 to 5 nM.

In the case of `C[C@@H]1C[C@@H]2Oc3cc(OC(F)(F)F)ccc3[C@@H]2N(C(=O)c2ccc3nc(N)c4cncn4c3c2)C1` [Ff-616, (4-aminoimidazo[1,5-a]quinoxalin-8-yl)((3R,4aS,9bS)-3-methyl-7-(trifluoromethoxy)-3,4,4a,9b-tetrahydrobenzofuro[3,2-b]pyridin-1(2H)-yl)methanone], in test [1] (cell viability assay), the 50% cytotoxic concentration (CC50) was less than 100 nM. Besides, the EC50 selectivity in test [2] (setting [4]) is recorded as 162. The EC50 in test [2] is not above 1 nM.

`Nc1nc2cnc(C(=O)N3CCC[C@@H]4Oc5cc(OC(F)(F)F)c(F)cc5[C@@H]43)cc2n2cncc12` [Ff-378, (4-aminoimidazo[1,5-a]pyrido[3,4-e]pyrazin-8-yl)((4aS,9bS)-8-fluoro-7-(trifluoromethoxy)-3,4,4a,9b-tetrahydrobenzofuro[3,2-b]pyridin-1(2H)-yl)methanone]: in test [1] (cell viability assay), the half-maximal cytotoxic concentration (CC50) was less than 100 nM. Further, the EC50 selectivity in test [2] (setting [4]) was found to be 106. In test [2], this molecule gave an EC50 not above 1 nM.

For `COc1ccc2c(c1)CO[C@H]1CCCN(C(=O)c3cc4c(cc3F)nc(N)c3cncn34)[C@@H]21` (racemic) [Ff-44, Rac-(4-amino-7-fluoroimidazo[1,5-a]quinoxalin-8-yl)((cis)-8-methoxy-2,3,4,4a,6,10b-hexahydro-1H-isochromeno[4,3-b]pyridin-1-yl)methanone], the CC50 in test [1] (cell viability) is less than 100 nM. In test [2] (setting [3]), the EC50 selectivity is 73. The EC50 in test [2] lay within 1 to 5 nM.

Turning to `Cc1ncn2c1c(N)nc1ccc(C(=O)N(Cc3ccc(C(F)(F)F)cc3F)N(C)C(=O)C3CC3)cc12` [Fa-4, 4-amino-N′-(cyclopropanecarbonyl)-N-(2-fluoro-4-(trifluoromethyl)benzyl)-N′,3-dimethylimidazo[1,5-a]quinoxaline-8-carbohydrazide], the CC50 in test [1] (cell viability) is less than 100 nM. Further, in test [2] (setting [3]), the EC50 selectivity worked out at 74. Also, the EC50 in test [2] was 1 to 5 nM.

As for `CN(C(=O)c1cc2c(cc1F)nc(N)c1cncn12)[C@@H]1CC2(CC2)c2cc(C(F)(F)F)ccc21` [Ff-58, (R)-4-amino-7-fluoro-N-methyl-N-(6′-(trifluoromethyl)-2′,3′-dihydrospiro[cyclopropane-1,1′-inden]-3′-yl)imidazo[1,5-a]quinoxaline-8-carboxamide], the CC50 in test [1] (cell viability) is less than 100 nM. In test [2] (setting [3]), this molecule had an EC50 selectivity of 166. The same molecule displayed an EC50 in test [2] of 1 to 5 nM.

Consider `CC(=O)N(C)N(Cc1ccc(C(F)(F)F)cn1)C(=O)c1ccc2nc(N)n3cncc3c2c1` [Fa-1, N′-acetyl-5-amino-N′-methyl-N-((5-(trifluoromethyl)pyridin-2-yl)methyl)imidazo[1,5-c]quinazoline-9-carbohydrazide], for which the cytotoxic concentration (CC50) in test [1] (cell viability) is more than 1000 nM. For the same molecule, in test [2] (setting [3]), the EC50 selectivity is on record as 152. Also, the EC50 in test [2] was more than 5 nM.

`Nc1nc2cnc(C(=O)N3CCC4(CC4)[C@@H]4Oc5cc(OC(F)(F)F)ccc5[C@@H]43)cc2n2cncc12` [Ff-618, (4-aminoimidazo[1,5-a]pyrido[3,4-e]pyrazin-8-yl)((4aS,9bS)-7-(trifluoromethoxy)-2,3,4a,9b-tetrahydro-1H-spiro[benzofuro[3,2-b]pyridine-4,1′-cyclopropan]-1-yl)methanone]: in test [1] (cell viability assay), the CC50 is less than 100 nM. In test [2] (setting [4]), this molecule had an EC50 selectivity of 294. This molecule also yielded an EC50 in test [2] of 1 to 5 nM.

Take `Cc1ncc2c(N)nc3ccc(C(=O)N(C)[C@@H]4COc5cc(C#CC6CCCO6)ccc54)cc3n12` (stereo partly drawn) [Ff-17, 4-amino-N,1-dimethyl-N-((3S)-6-((tetrahydrofuran-2-yl)ethynyl)-2,3-dihydrobenzofuran-3-yl)imidazo[1,5-a]quinoxaline-8-carboxamide]: in test [1] (cell viability), the CC50 is 100 to 1000 nM. This molecule yielded an EC50 selectivity in test [2] (setting [3]) of 253. The EC50 in test [2] lay within 1 to 5 nM.

On to `Cc1nc(C)n2c1c(N)nc1ccc(C(=O)N(C)[C@@H]3COc4cc(C(F)(F)F)ccc43)cc12` [Fg-18, (S)-4-amino-N,1,3-trimethyl-N-(6-(trifluoromethyl)-2,3-dihydrobenzofuran-3-yl)imidazo[1,5-a]quinoxaline-8-carboxamide], for which the 50% cytotoxic concentration (CC50) in test [1] (cell viability assay) lay within 100 to 1000 nM. In test [2] (setting [4]), this molecule had an EC50 selectivity of 275. The same molecule displayed an EC50 in test [2] of 1 to 5 nM.

Take `Nc1nc2ccc(C(=O)N(Cc3ccc(C(F)(F)F)cn3)C34CC(C3)C4)cc2n2cncc12` [Fe-1, 4-amino-N-(bicyclo[1.1.1]pentan-1-yl)-N-((5-(trifluoromethyl)pyridin-2-yl)methyl)imidazo[1,5-a]quinoxaline-8-carboxamide]: in test [1] (cell viability), the CC50 was less than 100 nM. Also, in test [2] (setting [3]), the EC50 selectivity turned out to be 62. The molecule also had an EC50 in test [2] of 1 to 5 nM.

One may read the CC50 as the concentration that lowers cell viability or growth by half. The EC50 is the concentration that produces a half-maximal response. Low readings indicate greater potency, high ones weaker potency.
